# Measured values from US4341895A (priority 1981, dated 1982).
# Key:
# [1] = Straub Tail observation; assay type: in vivo; details: mouse, s.c.; for locomotor activity (footnote i to Straub Tail): at 75 mg/kg (R = C2 H5 COO) or 30 & 60 mg/kg (R = C2 H5 CO)
# From the text: (§1) The compounds of formula I and their acid-addition salts are useful as analgesic agents, as determined by standard tests performed on the compounds of formula I where R is ethoxycarbonyl and propionyl in the form of their p-toluenesulfonate salts.
# (§2) ^a All activities are expressed in mg/kg s.c., free base.
# [2] = system: phenazocine; experiment: Antagonist activity vs. phenazocine; assay type: in vivo; details: rat, s.c., as free base; doses in parentheses; tested as p-toluenesulfonate salt
# [3] = system: ACh; experiment: ACh (acetylcholine) analgesic test, procedure of Collier et al.; assay type: in vivo; details: sc; mouse, as free base; range in parentheses; tested as p-toluenesulfonate salt
# From the text: as §1, §2
# ^e Procedure (in mouse) of H.O.J. Collier, L. C. Dineen, C. A. Johnso
# and C. Schneider, Br. J. Pharmacol. Chemother. 32, 295 (1968).
# [4] = Tail Flick (analgesic agonist activity); assay type: in vivo; details: sc; rat, as free base; tested as p-toluenesulfonate salt
# [5] = system: Bradykinin; experiment: Bradykinin analgesic test; assay type: in vivo; details: rat
# From the text: as §1, §2
# ^f G. Deffenu, L. Pegrassi and B. Lumachi, J. Pharm. Pharmacol. 18,
# 135 (1966); B. A. Berkowitz and E. L. Way, J. Pharmacol. Exp. Ther. 177,
# [6] = in vivo; cited from earlier work
SMILES,locomotor activity (footnote i to Straub Tail) [1],Antagonist activity vs. phenazocine [2],ED50 [3] [mg/kg],ED50 [4] [mg/kg],depression (footnote h to Bradykinin ED50) ([5]; 10 mg/kg s.c.),depression (footnote h to Bradykinin ED50) ([5]; 20 and 30 mg/kg s.c.),"ED50 ([5]; sc, as free base, range in parentheses, tested as p-toluenesulfonate salt) [mg/kg]","Straub Tail (dose) ([1]; as free base, tested as p-toluenesulfonate salt) [mg/kg]",analgesic activity [6]
"CCC(=O)N1[C@@H]2CC[C@H]1[C@H](O)[C@@H](NCc1ccccc1)C2 (relative stereo) [I (R = C2 H5 CO), 3α-Benzylamino-8-propionyl-1αH,5αH-nortropan-2β-ol]",Increased locomotor activity,inactive (10),16,44 ± 3.5,–,–,–,–,–
"CCOC(=O)N1[C@@H]2CC[C@H]1[C@H](O)[C@@H](NCc1ccccc1)C2 (relative stereo) [I (R = C2 H5 COO), Ethyl 3α-benzylamino-2β-hydroxy-1αH,5αH-nortropane-8-carboxylate]",Increased locomotor activity,inactive (10 & 80),6.9,56 ± 4,Mild depression,depression,21,75,–
CN1[C@@H]2CC[C@H]1CC(C(=O)O)(c1ccccc1)C2 (stereo partly shown) [3-phenyl-3-carboxytropane],–,–,–,–,–,–,–,–,reported to have analgesic activity
